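Interpolation was linear, between the two tested concentrations surrounding the appropriate level; five concentrations were tested over 48 hours in 96-well plates. GI50 = concentration required for 50% inhibition of growth.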 Calls of active or inactive are those of the source. Rule as the data show it: active = GI50 up to about 1.1 µM and inactive = higher. Where a SMILES comes first, the peptide text is derived from it. Peptide text beside a SMILES is read from it. * marks the point of attachment. Boc = CC(C)(C)OC(=O)*
Key:
Assay in all cases: NCI-60 cell line screen, 48 h
HOP-18 = tested on: HOP-18
DLD-1 = tested on: DLD-1
DMS-114 = tested on: DMS-114
KM-20L2 = tested on: KM-20L2
DMS-273 = tested on: DMS-273
SNB-78 = tested on: SNB-78
XF498 = tested on: XF498
BT-549 = tested on: BT-549
RXF 631 = tested on: RXF 631

O=C(c1cccs1)N(C(=S)N1CCN(c2ccccn2)CC1)c1ccccc1
GI50 (HOP-18): > 100 µM (inactive)
GI50 (DLD-1): > 100 µM (inactive)
GI50 (DMS-114): 53 µM (inactive)
GI50 (KM-20L2): > 100 µM (inactive)
GI50 (DMS-273): 82.8 µM (inactive)
GI50 (SNB-78): > 100 µM (inactive)
GI50 (XF498): 37.5 µM (inactive)

COC(Cc1ccccc1)NC(C)=O (stereo unspecified)
GI50 (BT-549): > 100 µM (inactive)

C=CC(Br)(CBr)CCC1OC1(C)C (stereo unspecified)
GI50 (BT-549): 16.6 µM (inactive)

CC1(C)CC(=O)C(=CNC(=S)c2ccccc2)C(=O)C1
GI50 (BT-549): > 100 µM (inactive)

CCOC(=O)C(NCc1ccc2c(c1)OCO2)(NC(=O)c1ccccc1)C(F)(F)F (stereo unspecified)
GI50 (BT-549): > 100 µM (inactive)

CC1=NN(C(=O)c2ccccc2O)C(=O)/C1=C/c1cccc(O)c1
GI50 (DLD-1): 0.167 µM (active)
GI50 (KM-20L2): 25.5 µM (inactive)
GI50 (BT-549): 0.392 µM (active)
GI50 (SNB-78): 0.276 µM (active)
GI50 (XF498): 0.783 µM (active)

O=C(c1nc2ccc(Cl)cc2[nH]c1=O)C(O)c1cccc([N+](=O)[O-])c1 (stereo unspecified)
GI50 (HOP-18): > 100 µM (inactive)
GI50 (DLD-1): > 100 µM (inactive)
GI50 (DMS-114): 5.98 µM (inactive)
GI50 (KM-20L2): > 100 µM (inactive)
GI50 (DMS-273): > 100 µM (inactive)
GI50 (SNB-78): > 100 µM (inactive)
GI50 (XF498): 9.1 µM (inactive)

O=C(Nc1cc(Cl)ccc1Cl)c1cc2cccc(Cl)c2oc1=O
GI50 (HOP-18): 40.2 µM (inactive)
GI50 (DLD-1): > 100 µM (inactive)
GI50 (DMS-114): > 100 µM (inactive)
GI50 (KM-20L2): > 100 µM (inactive)
GI50 (DMS-273): > 100 µM (inactive)
GI50 (XF498): 24 µM (inactive)

CC1=CC(=O)C2=C(C)CCC3C(C)C(=O)OC3C12 (stereo unspecified)
GI50 (BT-549): > 100 µM (inactive)

COc1cc(/C=C2\C(=O)N(c3cccc(NC(C)=O)c3)C(c3ccccc3)S2(=O)=O)cc(OC)c1OC (stereo unspecified)
GI50 (BT-549): 67.3 µM (inactive)

NC(=S)N1N=C2CCCCCC[C@@H]2[C@H]1c1ccccc1
GI50 (DLD-1): 56.2 µM (inactive)
GI50 (DMS-114): 27.1 µM (inactive)
GI50 (KM-20L2): 62.1 µM (inactive)
GI50 (DMS-273): 34.2 µM (inactive)
GI50 (SNB-78): > 100 µM (inactive)
GI50 (XF498): 23.9 µM (inactive)

CCOC(=O)c1c(C)n(-c2ccc(C)cc2)c(=O)c2ccccc2c(=O)c2c(=O)ccc(=O)c1=2
GI50 (BT-549): 23.3 µM (inactive)

c1ccc2c(c1)CCc1cc3cc4c(nc3nc1-2)-c1ccccc1CC4
GI50 (DLD-1): > 100 µM (inactive)
GI50 (DMS-273): > 100 µM (inactive)
GI50 (SNB-78): > 100 µM (inactive)

C/C(=N\NS(=O)(=O)c1ccc(C)cc1)c1cc2ccccc2n1C
GI50 (DLD-1): > 100 µM (inactive)
GI50 (DMS-114): > 100 µM (inactive)
GI50 (KM-20L2): > 100 µM (inactive)
GI50 (DMS-273): > 100 µM (inactive)

COc1ccc(Cc2c(N)[nH]c(=O)[nH]c2=O)cc1
GI50 (BT-549): > 100 µM (inactive)

Cc1ccc(Cl)c2c(=O)cc(-c3ccccc3)[nH]c12
GI50 (HOP-18): 11.5 µM (inactive)
GI50 (DLD-1): > 100 µM (inactive)
GI50 (DMS-273): 35.6 µM (inactive)

Cn1ccnc1Sc1ccc(/C=N/NC(=O)c2ccccc2[N+](=O)[O-])cc1[N+](=O)[O-]
GI50 (BT-549): 83.9 µM (inactive)

CCC(C)C1NC(=O)C2CCCN2C(=O)CNC(=O)C(C)NC(=O)C(Cc2ccccc2)NC(=O)C(C(C)C)NC1=O (stereo unspecified) (cyclo(GPIVFA); configuration not given here)
GI50 (HOP-18): > 100 µM (inactive)
GI50 (DLD-1): > 100 µM (inactive)
GI50 (DMS-114): > 100 µM (inactive)
GI50 (KM-20L2): > 100 µM (inactive)
GI50 (RXF 631): > 100 µM (inactive)

O=C1Cc2cn[nH]c2-c2ccccc2N1
GI50 (BT-549): 22.5 µM (inactive)

CC(=O)CC(=O)c1cc2c(=O)oc(C)cc2oc1=O
GI50 (BT-549): > 37.5 µM (inactive)

O=C1C(Cl)=C(NCCOCCO)C(=O)c2c(O)ccc(O)c21
GI50 (HOP-18): 15.6 µM (inactive)
GI50 (DLD-1): 2.13 µM (inactive)
GI50 (DMS-273): 3.89 µM (inactive)
GI50 (SNB-78): 12.7 µM (inactive)

CCCC#CCOC(=O)c1cc([N+](=O)[O-])cc([N+](=O)[O-])c1
GI50 (BT-549): > 100 µM (inactive)

O=C(O)C(O)c1ccc(F)cc1 (stereo unspecified)
GI50 (BT-549): > 100 µM (inactive)

O=C1CSC(c2c[nH]c3ccccc23)N1c1ccc(Cl)cc1Cl (stereo unspecified)
GI50 (BT-549): > 100 µM (inactive)

CN(C)CCOc1ccc2[nH]c(C(=O)N3CC(CCl)c4c3cc(NC(=O)OCc3ccc([N+](=O)[O-])cc3)c3ccccc43)cc2c1 (stereo unspecified)
GI50 (BT-549): 1.85 µM (inactive)

ClC(Cl)=C(Cl)C1(Cl)CC1COCc1ccccc1 (stereo unspecified)
GI50 (DLD-1): 38 µM (inactive)
GI50 (DMS-114): 20.7 µM (inactive)
GI50 (KM-20L2): 33.3 µM (inactive)
GI50 (DMS-273): 42.8 µM (inactive)
GI50 (SNB-78): 4.83 µM (inactive)
GI50 (XF498): 23.6 µM (inactive)

O=C(c1cccs1)N(C(=O)N1CCN(c2ccccc2)CC1)S(=O)(=O)c1ccccc1
GI50 (BT-549): 28.2 µM (inactive)

O=C1C=C(c2[nH]c3ccccc3c2C2=CC(=O)c3ccccc3C2=O)C(=O)c2ccccc21
GI50 (HOP-18): > 100 µM (inactive)
GI50 (DLD-1): 57.1 µM (inactive)
GI50 (DMS-114): 17.3 µM (inactive)
GI50 (DMS-273): 39.2 µM (inactive)
GI50 (SNB-78): 32.8 µM (inactive)

CC1CCc2sc3nc(S)n(C)c(=O)c3c2C1 (stereo unspecified)
GI50 (BT-549): 96.8 µM (inactive)

CC(NC(=O)OC(C)(C)C)C(=O)NC(Cc1ccccc1)C(=O)NCC(=O)O (stereo not drawn) (Boc-Ala-Phe-Gly-OH; configuration not given here)
GI50 (BT-549): > 100 µM (inactive)

CCc1cccc(C)c1NC(C)=O
GI50 (DLD-1): > 100 µM (inactive)
GI50 (DMS-114): > 100 µM (inactive)
GI50 (KM-20L2): > 100 µM (inactive)
GI50 (DMS-273): > 100 µM (inactive)
GI50 (RXF 631): > 100 µM (inactive)
GI50 (SNB-78): > 100 µM (inactive)
GI50 (XF498): > 100 µM (inactive)

— ChEMBL document CHEMBL1201862, “PubChem BioAssay data set” (2004)
